According to ChEMBL document CHEMBL1130523, “Design and synthesis of the cartilage protective agent (CPA, Ro32-3555)” (Bioorg Med Chem Lett, 1997):
In brackets after ≈: the same amount, converted by molar mass.

Assays:
[1] = Oral bioavailability in rat; format: ADME, organism-based; conditions: in vivo
[2] = Partition coefficient (logD); format: physicochemical; conditions: octanol/water
[3] = species: Bos taurus; assay: Effective activity in protecting bovine nasal cartilage explants against degradation induced by interleukin 1-alpha in efficacy experiments in vitro; format: functional
[4] = molecular target: Collagenase; assay: Inhibition of human collagenase (MMP1); format: protein assay
[5] = molecular target: Matrix metalloproteinase-9 (Homo sapiens, UniProt P14780); assay: Inhibition of human gelatinase B, MMP9
Matrix metalloproteinase-9, sequence (P14780 whole entry): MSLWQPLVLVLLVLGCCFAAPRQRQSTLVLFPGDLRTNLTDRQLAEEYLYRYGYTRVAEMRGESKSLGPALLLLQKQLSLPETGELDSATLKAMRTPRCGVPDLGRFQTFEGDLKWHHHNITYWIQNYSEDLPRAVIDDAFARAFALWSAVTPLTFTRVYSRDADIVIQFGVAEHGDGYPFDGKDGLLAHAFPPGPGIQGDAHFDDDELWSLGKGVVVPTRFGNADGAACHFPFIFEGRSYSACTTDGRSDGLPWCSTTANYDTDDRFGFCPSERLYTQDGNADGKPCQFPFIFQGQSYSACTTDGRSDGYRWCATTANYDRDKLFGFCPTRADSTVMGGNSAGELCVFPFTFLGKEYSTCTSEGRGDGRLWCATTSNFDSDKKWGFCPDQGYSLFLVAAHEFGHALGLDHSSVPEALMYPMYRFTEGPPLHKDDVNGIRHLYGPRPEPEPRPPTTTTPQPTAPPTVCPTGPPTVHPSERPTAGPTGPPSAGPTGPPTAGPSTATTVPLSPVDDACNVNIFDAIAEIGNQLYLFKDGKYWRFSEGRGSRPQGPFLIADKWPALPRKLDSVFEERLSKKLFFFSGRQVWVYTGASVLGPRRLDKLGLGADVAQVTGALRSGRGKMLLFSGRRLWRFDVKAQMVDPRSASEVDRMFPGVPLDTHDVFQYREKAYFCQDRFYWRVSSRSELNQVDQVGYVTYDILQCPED

[6] = molecular target: Stromelysin-1 (Homo sapiens, UniProt P08254); assay: Inhibition of human stromelysin-1, MMP-3
Stromelysin-1, sequence (P08254 whole entry): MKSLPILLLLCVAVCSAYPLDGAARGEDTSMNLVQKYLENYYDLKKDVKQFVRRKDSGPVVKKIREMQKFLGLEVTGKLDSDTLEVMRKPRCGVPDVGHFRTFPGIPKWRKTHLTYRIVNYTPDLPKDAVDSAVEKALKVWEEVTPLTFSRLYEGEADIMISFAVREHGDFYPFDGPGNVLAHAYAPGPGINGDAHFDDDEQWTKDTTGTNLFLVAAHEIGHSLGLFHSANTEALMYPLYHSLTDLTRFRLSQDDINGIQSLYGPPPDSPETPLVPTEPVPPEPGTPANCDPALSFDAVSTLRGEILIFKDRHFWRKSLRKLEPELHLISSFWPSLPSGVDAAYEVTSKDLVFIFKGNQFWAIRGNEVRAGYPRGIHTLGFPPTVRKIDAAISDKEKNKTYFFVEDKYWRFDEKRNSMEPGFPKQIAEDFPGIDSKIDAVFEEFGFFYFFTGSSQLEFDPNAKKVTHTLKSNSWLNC

[7] = Solubility was determined; format: physicochemical

solubility [7] [mg/mL]	SMILES	bioavailability [1] [%]	logD [2]	IC50 [3] [nM]	IC50 [4] [nM]	IC50 [5] [nM]	IC50 [6] [nM]
0.8 (≈ 2.54 mM)	CNC(=O)[C@H](NC(=O)[C@@H](CC(=O)NO)CC(C)C)C(C)(C)C	3	–	–	4.9	10.4	160
73 (≈ 167 mM)	CN1C(=O)N(C[C@@H](C(=O)NO)[C@@H](CC2CCCC2)C(=O)N2CCCCC2)C(=O)C1(C)C	25	0.6	< 100	–	59	–
–	CNC(=O)[C@H](NC(=O)C(CC(C)C)C(CN1C(=O)N(C)C(C)(C)C1=O)C(=O)NO)C(C)(C)C (single isomer, unassigned)	1.5	–	–	1	2.8	–
–	CNC(=O)[C@H](NC(=O)[C@H](CC(C)C)[C@@H](CN1C(=O)c2ccccc2C1=O)C(=O)NO)C(C)(C)C	1	–	–	–	4.3	9.1
–	CNC(=O)[C@H](NC(=O)[C@H](CC(C)C)[C@@H](C)C(=O)NO)C(C)(C)C	2.7	–	–	2.6	2.4	47

SMILES	solubility [7] [mg/mL]	bioavailability [1] [%]	logD [2]	IC50 [3] [nM]	IC50 [4] [nM]	IC50 [5] [nM]	IC50 [6] [nM]
CC(C)C[C@@H](C(=O)N1CCCCC1)[C@@H](CN1C(=O)N(C)C(C)(C)C1=O)C(=O)NO	> 100	30	0.6	< 100	10.1	237	2180
